Source: US11111245B2, “Derivatives of N-cycloalkyl/heterocycloalkyl-4-(imidazo[1,2-a]pyridine)pyrimidin-2-amine as therapeutic agents” (Aucentra Therapeutics Pty Ltd, priority 2017, dated 2021)

Key:
[1] = tested on: leukemia cell lines; assay: Resazurin cell viability assay on leukemia cell lines (72 h growth inhibition, GI50); format: cell-based; conditions: Homo sapiens, MV4-11 cells
Outline: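 Cells were exposed to compound, then viability was read by MTT (solid tumour lines) or resazurin reduction (leukaemia lines). Non-linear regression gave the concentration inhibiting 50% of cell growth.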

[2] = biological target: CDK6/D3 (Homo sapiens, UniProt Q00534); assay: ADP Glo Kinase assay CDK6/D3; format: biochemical; conditions: CDK6D3; for remaining activity at 10 µM: compound at 10 μM, read-out: residual activity (%) at 10 μM CDK6D3; for Ki: read-out: CDK inhibition, Ki (μM) CDK6D3
Procedure: Eurofins Pharma Discovery or Reaction Biology Corporation Kinase Profiler services were used to measure inhibition of CDKs and other kinases by radiometric assay. Inhibition of CDK4/D1, CDK6/D3 and CDK9/T1 were also determined in-house using ADP Glo Kinase assays (Promega Corporation, Madison, USA). Briefly, the kinase reaction for CDK4/D1 and CDK6/D3 was performed with kinase reaction buffer ([…] Tris base pH 7.5, 20 mM MgCl2, 0.4 mM DTT), 0.1 mg/ml BSA and RB-CTF substrate (retinoblastoma protein 1 C-terminal fraction). For CDK9/CyclinT1, the kinase reaction was performed with standard assay buffer and Kinase Dilution Buffer and RBER-IRStide substrate. Serial dilutions of 1:3 were prepared for test compounds for 10 concentrations (from 10 μM to 0.5 nM). The kinase reactions were started by addition of ATP, incubated for 40 min at 37° C. and then stopped by adding 10 μL of ADP Glo reagent. After incubation at room temperature in the dark for 40 min, 20 μL of kinase detection reagent was added per well and incubated for 40 min. Luminescence was measured using an EnVision Multilabel plate reader (PerkinElmer, Buckinghamshire, UK). Positive and negative controls were performed in the presence and absence of CDK kinases, respectively. Half-maximal inhibition (IC50) values were calculated using a 4-parameter logistic non-linear regression model with Graphpad prism (Version 6.0). Apparent inhibition constants (Ki) values were calculated from Km (ATP) and IC50 values for the respective kinases.

[3] = biological target: CDK9/T1 (Homo sapiens, UniProt P50750); assay: ADP Glo Kinase assay CDK9/T1; format: biochemical; conditions: CDK9T1; read-out: CDK inhibition, Ki (μM) CDK9T1
Outline: (§1)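 ADP Glo luminescence, in-house: CDK4/D1, CDK6/D3 on RB-CTF substrate (Tris pH 7.5, MgCl2, DTT, BSA); CDK9/T1 on RBER-IRStide. Reaction 40 min, 37° C after ATP addition. 10-point 1:3 series, 10 μM to 0.5 nM. IC50 by 4-parameter logistic; Ki derived using ATP Km.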

[4] = biological target: CDK4/D1 (Homo sapiens, UniProt P11802); assay: ADP Glo Kinase assay CDK4/D1; format: biochemical; conditions: CDK4D1; for remaining activity at 10 µM: compound at 10 μM, read-out: residual activity (%) at 10 μM CDK4D1; for Ki: read-out: CDK inhibition, Ki (μM) CDK4D1
Outline: as §1

[5] = biological target: T1, CDKs and other kinases (Homo sapiens, UniProt P06493); assay: Radiometric kinase assay (Eurofins Pharma Discovery or Reaction Biology Corporation Kinase Profiler); format: biochemical; conditions: CDK1B; for Ki: read-out: CDK inhibition, Ki (μM) CDK1B; for remaining activity at 10 µM: compound at 10 μM, read-out: residual activity (%) at 10 μM CDK1B
T1 construct: other: CDK1B; residual activity (%) at 10 μM CDK1B; compound at 10 μM
Outline: (§2)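 Other CDKs and further kinases were profiled externally by radiometric assay. In-house ADP Glo assays covered CDK4/D1 and CDK6/D3 (RB-CTF substrate, pH 7.5 Tris buffer with MgCl2, DTT, BSA) and CDK9/T1 (RBER-IRStide substrate), 40 min at 37° C.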

[6] = biological target: T2, CDKs and other kinases (Homo sapiens, UniProt P24941); assay: as above; format: biochemical; conditions: CDK2A; for Ki: read-out: CDK inhibition, Ki (μM) CDK2A; for remaining activity at 10 µM: compound at 10 μM, read-out: residual activity (%) at 10 μM CDK2A
T2 construct: other: CDK2A; residual activity (%) at 10 μM CDK2A; compound at 10 μM
Outline: as §2

[7] = biological target: T3, CDKs and other kinases (Homo sapiens, UniProt P50613); assay: as above; format: biochemical; conditions: CDK7H; for Ki: read-out: CDK inhibition, Ki (μM) CDK7H; for remaining activity at 10 µM: compound at 10 μM, read-out: residual activity (%) at 10 μM CDK7H
T3 construct: other: CDK7H; residual activity (%) at 10 μM CDK7H; compound at 10 μM
Outline: as §2

Chain of CDK9/T1 (P50750 whole entry): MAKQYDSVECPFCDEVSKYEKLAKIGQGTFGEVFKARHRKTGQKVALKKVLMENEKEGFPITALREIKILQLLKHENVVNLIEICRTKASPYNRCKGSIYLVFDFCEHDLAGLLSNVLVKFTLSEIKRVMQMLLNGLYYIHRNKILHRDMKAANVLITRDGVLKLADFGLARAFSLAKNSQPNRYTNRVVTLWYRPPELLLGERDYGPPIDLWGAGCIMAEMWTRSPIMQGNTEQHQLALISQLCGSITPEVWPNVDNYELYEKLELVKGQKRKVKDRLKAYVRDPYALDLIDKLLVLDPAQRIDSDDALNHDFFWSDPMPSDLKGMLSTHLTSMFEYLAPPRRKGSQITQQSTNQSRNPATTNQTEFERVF
Chain of CDK9/T1 (O60563 whole entry partner): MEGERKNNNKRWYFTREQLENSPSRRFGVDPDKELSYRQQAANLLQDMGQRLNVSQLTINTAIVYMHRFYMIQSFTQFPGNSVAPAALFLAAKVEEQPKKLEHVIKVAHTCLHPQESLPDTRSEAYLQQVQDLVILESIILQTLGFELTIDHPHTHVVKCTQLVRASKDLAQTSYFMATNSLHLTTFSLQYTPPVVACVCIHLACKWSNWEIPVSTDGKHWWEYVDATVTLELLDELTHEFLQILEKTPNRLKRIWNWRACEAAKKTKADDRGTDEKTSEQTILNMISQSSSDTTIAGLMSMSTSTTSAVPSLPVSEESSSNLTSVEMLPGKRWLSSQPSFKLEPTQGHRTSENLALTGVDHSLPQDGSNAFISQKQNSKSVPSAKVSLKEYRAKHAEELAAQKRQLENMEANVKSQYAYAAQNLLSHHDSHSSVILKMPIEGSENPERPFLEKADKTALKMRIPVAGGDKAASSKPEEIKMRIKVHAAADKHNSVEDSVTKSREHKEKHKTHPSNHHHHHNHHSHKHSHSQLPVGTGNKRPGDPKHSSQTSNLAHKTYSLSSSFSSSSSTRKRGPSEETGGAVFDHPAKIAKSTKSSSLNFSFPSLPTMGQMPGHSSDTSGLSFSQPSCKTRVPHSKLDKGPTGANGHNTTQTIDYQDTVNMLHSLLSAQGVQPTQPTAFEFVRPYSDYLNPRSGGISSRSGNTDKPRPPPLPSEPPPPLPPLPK
T3 sequence (P50613 whole entry): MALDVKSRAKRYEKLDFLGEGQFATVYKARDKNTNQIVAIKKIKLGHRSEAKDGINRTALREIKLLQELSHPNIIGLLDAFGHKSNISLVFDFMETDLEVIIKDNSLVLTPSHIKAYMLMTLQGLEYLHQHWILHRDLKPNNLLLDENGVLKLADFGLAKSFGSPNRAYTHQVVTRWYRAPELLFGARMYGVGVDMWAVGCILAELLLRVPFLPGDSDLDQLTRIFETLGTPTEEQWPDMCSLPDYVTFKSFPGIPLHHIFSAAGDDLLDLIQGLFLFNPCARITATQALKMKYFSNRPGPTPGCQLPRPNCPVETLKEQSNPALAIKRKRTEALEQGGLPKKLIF
Chain of CDK6/D3 (Q00534 whole entry): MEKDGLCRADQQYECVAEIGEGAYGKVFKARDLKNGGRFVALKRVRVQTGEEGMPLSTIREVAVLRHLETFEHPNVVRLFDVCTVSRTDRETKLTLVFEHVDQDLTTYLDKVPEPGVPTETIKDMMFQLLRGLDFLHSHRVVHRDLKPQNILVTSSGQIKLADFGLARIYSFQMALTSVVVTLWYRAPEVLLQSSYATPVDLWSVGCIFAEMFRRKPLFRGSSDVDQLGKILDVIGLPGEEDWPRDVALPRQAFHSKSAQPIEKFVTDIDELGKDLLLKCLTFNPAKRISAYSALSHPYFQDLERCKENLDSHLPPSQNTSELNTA
Chain of CDK6/D3 (P30281 whole entry partner): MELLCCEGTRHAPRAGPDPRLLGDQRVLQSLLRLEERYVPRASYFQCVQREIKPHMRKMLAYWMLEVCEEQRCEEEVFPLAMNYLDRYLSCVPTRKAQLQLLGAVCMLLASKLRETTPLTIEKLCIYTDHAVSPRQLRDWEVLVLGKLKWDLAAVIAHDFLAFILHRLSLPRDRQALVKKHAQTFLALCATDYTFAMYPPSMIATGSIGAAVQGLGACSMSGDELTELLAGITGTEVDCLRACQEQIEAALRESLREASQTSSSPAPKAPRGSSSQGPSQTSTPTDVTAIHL
T1 sequence (P06493 whole entry): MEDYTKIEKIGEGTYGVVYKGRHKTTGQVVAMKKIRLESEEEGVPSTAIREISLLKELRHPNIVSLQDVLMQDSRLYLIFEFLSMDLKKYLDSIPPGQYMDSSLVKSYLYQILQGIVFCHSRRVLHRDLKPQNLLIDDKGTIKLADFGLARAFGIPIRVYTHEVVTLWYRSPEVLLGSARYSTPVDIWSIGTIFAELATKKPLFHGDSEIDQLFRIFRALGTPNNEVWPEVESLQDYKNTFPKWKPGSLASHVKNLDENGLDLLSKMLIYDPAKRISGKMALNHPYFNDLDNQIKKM
Chain of CDK4/D1 (P11802 whole entry): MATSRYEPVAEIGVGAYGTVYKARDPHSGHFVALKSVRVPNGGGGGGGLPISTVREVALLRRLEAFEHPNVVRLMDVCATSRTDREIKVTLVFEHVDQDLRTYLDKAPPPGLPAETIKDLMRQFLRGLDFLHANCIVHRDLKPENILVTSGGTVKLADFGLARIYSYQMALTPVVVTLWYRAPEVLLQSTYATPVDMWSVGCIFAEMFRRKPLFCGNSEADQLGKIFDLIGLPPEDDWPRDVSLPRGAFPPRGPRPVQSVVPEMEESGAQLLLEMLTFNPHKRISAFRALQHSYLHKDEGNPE
Chain of CDK4/D1 (P24385 whole entry partner): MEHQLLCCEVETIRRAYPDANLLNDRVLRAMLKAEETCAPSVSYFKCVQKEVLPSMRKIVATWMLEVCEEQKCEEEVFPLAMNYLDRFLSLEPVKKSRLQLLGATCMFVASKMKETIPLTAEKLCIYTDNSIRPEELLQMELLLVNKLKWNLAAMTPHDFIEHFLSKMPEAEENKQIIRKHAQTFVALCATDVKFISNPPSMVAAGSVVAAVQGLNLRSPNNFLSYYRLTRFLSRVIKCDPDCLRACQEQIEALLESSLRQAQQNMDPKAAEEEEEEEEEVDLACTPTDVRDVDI

SMILES | GI50 [1] | remaining activity at 10 µM [2] | Ki [3] | remaining activity at 10 µM [4] | Ki [5] | Ki [6] | Ki [7] | Ki [2] | Ki [4] | remaining activity at 10 µM [5] | remaining activity at 10 µM [6] | remaining activity at 10 µM [7]
Cc1cnc(N[C@H]2CC[C@H](N)CC2)nc1-c1cnc2ccc(Nc3ccncn3)cn12 [Compound 116, (1r,4r)-N^1-(5-Methyl-4-(6-(pyrimidin-4-ylamino)imidazo [1,2-a]pyridin-3-yl)pyrimidin-2-yl)cyclohexane-1,4-diamine] | 0.885 ± 0.137 µM | 86% | 0.106 µM | 18% | – | – | – | – | – | – | – | –
Cc1cnc(N[C@H]2CC[C@H](N)CC2)nc1-c1cnc2ccc(Nc3cncc(F)c3)cn12 [Compound 66, (1r,4r)-N^1-(4-(6-((5-Fluoropyridin-3-yl)amino)imidazo [1,2-a]pyridin-3-yl)-5-methylpyrimidin-2-yl)cyclohexane-1,4-diamine] | – | – | 0.007 µM | – | 1.26 µM | 0.18 µM | 3.25 µM | 0.33 µM | 0.76 µM | – | – | –
Cc1cnc(N[C@H]2CC[C@H](N)CC2)nc1-c1cnc2cc(Nc3cncnc3)ccn12 [Compound 56, (1r,4r)-N^1-(5-Methyl-4-(7-(pyrimidin-5-ylamino)imidazo [1,2-a]pyridin-3-yl)pyrimidin-2-yl)cyclohexane-1,4-diamine] | – | 5% | 0.051 µM | 0% | – | – | – | – | – | 39% | 12% | 22%
N[C@H]1CC[C@H](Nc2ncc(Cl)c(-c3cnc4ccc(Nc5cncnc5)cn34)n2)CC1 [Compound 88, (1r,4r)-N^1-(5-Chloro-4-(6-(pyrimidin-5-ylamino)imidazo [1,2-a]pyridin-3-yl)pyrimidin-2-yl)cyclohexane-1,4-diamine] | – | – | 0.002 µM | – | 0.16 µM | 0.019 µM | 1.26 µM | 0.034 µM | 0.06 µM | – | – | –
N[C@H]1CC[C@H](Nc2ncc(F)c(-c3cnc4ccc(Nc5cncnc5)cn34)n2)CC1 [Compound 50, (1r,4r)-N^1-(5-Fluoro-4-(6-(pyrimidin-5-ylamino)imidazo [1,2-a]pyridin-3-yl)pyrimidin-2-yl)cyclohexane-1,4-diamine] | – | 4% | 0.003 µM | 14% | – | – | – | – | – | 1% | 0% | 4%
Cc1cnc(N[C@H]2CC[C@H](N)CC2)nc1-c1cnc2ccc(N(C)c3cccnc3)cn12 [Compound 122, (1r,4r)-N^1-(5-Methyl-4-(6-(methyl(pyridin-3-yl)amino)imidazo[1,2-a]pyridin-3-yl)pyrimidin-2-yl)cyclohexane-1,4-diamine] | – | 44% | 0.3 µM | 71% | 1.71 µM | 1.15 µM | 1.16 µM | – | – | – | – | –
N[C@H]1CC[C@H](Nc2ncc(Cl)c(-c3cnc4cc(Nc5cncnc5)ccn34)n2)CC1 [Compound 118, (1r,4r)-N^1-(5-Chloro-4-(7-(pyrimidin-5-ylamino)imidazo [1,2-a]pyridin-3-yl)pyrimidin-2-yl)cyclohexane-1,4-diamine] | – | 6% | 0.036 µM | 0% | 0.154 µM | 0.026 µM | 0.018 µM | – | – | – | – | –
N[C@H]1CC[C@H](Nc2ncc(-c3ccccc3)c(-c3cnc4ccc(-c5ccccc5)cn34)n2)CC1 [Compound 80, (1r,4r)-N^1-(5-Phenyl-4-(6-phenylimidazo[1,2-a]pyridin-3-yl)pyrimidin-2-yl)cyclohexane-1,4-diamine] | 0.243 ± 0.053 µM | 54% | 0.2 µM | 61% | – | – | – | – | – | – | – | –
N[C@H]1CC[C@H](Nc2ncc(Cl)c(-c3cnc4cc(-c5cccnc5)ccn34)n2)CC1 [Compound 78, (1r,4r)-N^1-(5-Chloro-4-(7-(pyridin-3-yl)imidazo[1,2-a]pyridin-3-yl)pyrimidin-2-yl)cyclohexane-1,4-diamine] | – | 3% | 0.019 µM | 10% | – | – | – | – | – | 7% | 0% | 3%
